Experiments:
[1] = cited from earlier work
[2] = concomitant administration for patients treated with ASA (Müller et al 1997); cited from earlier work
[3] = randomized, double-blind, placebo-controlled trial of esomeprazole 20 mg once daily for 26 weeks in patients receiving ASA; type: in vivo
Experimental: Patients were randomized to receive either esomeprazole 20 mg (administered as esomeprazole magnesium, i.e. Nexium® owned by AstraZeneca AB) or placebo once daily for 26 weeks. The primary outcome variable was the presence of gastric and/or duodenal ulcers at endoscopy over the 26-week period. A total of 991 patients, all receiving ASA in doses varying between 75-325 mg/day (57.1% male, mean age 69.3 years, mean acetyl salicylic acid (ASA) dose 124.0 mg/day) were included in the intent-to-treat population. The cumulative proportion of patients without either gastric or duodenal ulcer at 26 weeks was 98.2% with esomeprazole, compared with 93.8% with placebo (life table estimates, p=0.0007). The incidence of gastric ulcers was lower in patients taking esomeprazole than in those taking placebo (1.2% vs. 3.8%), as was the incidence of duodenal ulcers (0.4% and 1.6% for esomeprazole and placebo, respectively). Eight patients (1.6%) had developed an ulcer, in the esomeprazole group by 6 months, compared with 27 patients (5.4%) in the placebo group. This corresponded to a relative reduction of developing an ulcer of 70% when taking esomeprazole rather than placebo. A total of 95.6% of patients treated with esomeprazole had no esophageal lesions at week 26, compared with 81.7% of patients treated with placebo (p<0.0001).

[4] = esomeprazole 20 mg once daily, 26 weeks, patients on ASA

Compound: CC(=O)Oc1ccccc1C(=O)O [ASA, acetyl salicylic acid]
- relative risk of developing an ulcer complication like bleeding from the stomach or the duodenum ([1]; daily dose as low as 75 mg (Weil et al BMJ 1995)): doubles
- hospital admissions due to adverse drug reactions caused by ASA ([1]; epidemiological data from the UK (Pirmohamed et al BMJ 2004)): 18%

Compound: Cc1c(OCC(F)(F)F)ccnc1C[S+]([O-])c1nc2ccccc2[nH]1 (stereo not drawn) [lansoprazole]
- effect on damages on the mucosa caused by ASA [2]: reduce damages on the mucosa caused by ASA

Compound: COc1ccc2nc([S@@+]([O-])Cc3ncc(C)c(OC)c3C)[nH]c2c1 [esomeprazole]
- resolution of investigator-assessed upper gastrointestinal symptoms ([3]; all symptoms, versus placebo): higher with esomeprazole than with placebo
- safety and tolerability ([3]; esomeprazole 20 mg once daily for 26 weeks, patients on ASA): safe and well tolerated
- incidence of duodenal ulcers [3, 4]: 0.4%
- incidence of gastric ulcers [3, 4]: 1.2%
- cumulative proportion of patients without either gastric or duodenal ulcer at 26 weeks ([3]; esomeprazole 20 mg once daily, 26 weeks, patients ≧60 years on ASA 75-325 mg/day, life table estimates, p=0.0007 vs placebo): 98.2%
- patients who had developed an ulcer by 6 months ([3]; esomeprazole 20 mg once daily, patients on ASA, eight patients): 1.6%
- patients with no esophageal lesions at week 26 ([3]; esomeprazole 20 mg once daily, patients on ASA, p<0.0001 vs placebo): 95.6%
- relative reduction of developing an ulcer ([3]; esomeprazole rather than placebo, by 6 months): 70%
- proportion of patients without esophageal lesions at 6 months ([3]; patients with no lesions and those with Los Angeles grade A lesions at baseline, versus placebo): higher with esomeprazole than with placebo
